These results are taken from patent publication US6630310B1, “Assay for binding between carbohydrate and glycolipid” (Biopolymer Engineering Pharmaceutical, Inc., priority 1996, dated 2003).

One data set relates to NF-IL6. The data set can be described thus: EMSA of NF-IL6 activation in BMC2.3 cells. In kind it is cell-based, murine. To be noted: 3 μg/ml, various times at 37° C. (FIG. 5). The protocol: (§1) In order to assess the activation of signal transduction as exemplified by the modulation of one or more transcriptional regulatory factors by underivatized, aqueous soluble β(1-3)-glucan, BMC2.3 cells were incubated with 3 μg/ml underivatized, aqueous soluble β(1-3)-glucan for various periods of time at 37° C. Nuclear extracts were prepared and incubated with ^32P-labeled DNA oligonucleotides specific for NF-κB or NF-IL6. The protein-^32P DNA complexes were separated from unbound ^32P DNA by gel electrophoresis (electrophoretic mobility shift assay, EMSA).
(§2) BMC2.3 cells in DMEM plus 10% fetal calf serum were incubated with 3 μg/ml underivatized, aqueous soluble β(1-3)-glucan for various lengths of time. Nuclear extracts were prepared by the method of Dignam et al. (Nuc. Acid Res. 11:1475-1489 (1983)). Nuclear extracts were then incubated with ^32P-labeled DNA oligonucleotide for twenty minutes at room temperature. The sequence of the oligonucleotide used as the probe was […] (SEQ ID NO: 1). The reaction mixture was then separated on a 4% polyacrylamide gel and the results recorded autoradiographically.
Background: Mobility shift assays separate free from complexed probe on a gel.

Data set [1] deals with neutrophil (human blood leukocyte) membranes. The data set can be described thus: ^3H-PGG-Glucan binding to neutrophil membranes. Conditions: PMN versus mononuclear cells. The protocol:
The distribution of the receptor for underivatized, aqueous soluble β(1-3)-glucan across various cell lines and human tissues was determined by assessing the binding of radioactively labeled underivatized, aqueous soluble β(1-3)-glucan to membranes derived from a variety of cell types (see Table 2). The amount of radioactively labeled underivatized, aqueous soluble β(1-3)-glucan binding is expressed as mean±standard deviation in ng/mg membrane protein. The non-specific binding is defined as radioactively labeled underivatized, aqueous soluble β(1-3)-glucan bound in the presence of greater than 100-fold excess unlabeled underivatized, aqueous soluble β(1-3)-glucan. The specific binding is determined by (Total Binding)−(Non-Specific Binding), with the number in parenthesis in Table 2 representing the percent total binding. Quantitation of complement receptor 3 (CR3) was carried out by flow cytometry using fluorescently-labeled anti-CD11b, and data are expressed as mean channel fluorescence (MCF) in arbitrary fluorescence units; background fluorescence for isotype controls were subtracted. The neutrophil sample was greater than 95 percent neutrophils by histology. […]
Membranes were diluted to 2 to 5 mg/ml in HBSS with and without 1 mg/ml BSA. […] No radioactivity was found in the oil layer in the absence of added membranes. […]

In data set [2] the test system is receptor for underivatized, aqueous soluble β(1-3)-glucan on human leukocyte membranes. The data set is described as follows: Competition of ^3H-PGG-Glucan binding to human leukocyte membranes (oil/sucrose binding assay). The protocol:
Aminated glucan was prepared by reductive amination of curdlan and provided by Dr. Rolph Seljelid (University of Tromsφ, Tromsφ, Norway).
At the end of the incubation, 100 μl aliquots of reaction mixture were layered on top of a double layer density gradient consisting of 100 μl dibutyl phthalate (lower layer) and 100 μl 8% sucrose in PBS (upper layer) in 400 μl centrifuge tubes (Brinkman). The tubes were spun at 15,000×g for 4-5 minutes and the tips containing the membrane pellets were removed, incubated in 300 μl SOLVABLE™ (New England Nuclear, Boston, Mass.) overnight at 50° C. to dissolve the pellet, and then radioactivity determined by liquid scintillation counting. […] Alternatively, membranes were centrifuged directly in their incubation tubes at 15,000×g for 4-5 minutes at 37° C., the pellet washed with HBSS, then pellets solubilized and radioactivity determined by liquid scintillation counting.

Data set [3] in a line: Competition of ^3H-PGG-Glucan binding to GalCer II. How it is done: Lactosyl ceramide or the sample to be measured was suspended in ethanol. Aliquots as specified were added in triplicate to the wells of a 96-well plate and air dried. The following components were premixed, then 100 μL was added to each well: saline (10 μL) or unlabelled, underivatized, aqueous soluble β(1-3)-glucan (10 μL of a 10 mg/ml stock), ^3H-underivatized, aqueous soluble β(1-3) glucan (10 μL of a 10 μg/ml stock), and HBSS (80 μL). Plates were incubated at 37° C. for 1.5 to 2 hours, then supernatants were removed from each well and discarded. Wells were rinsed with HBSS (200 μL) and SOLVABLE™ (100 μL) was added. The plate was incubated at 60° C. for 5 minutes, then supernatants were removed and counted.

In a further data set the test system is NF-κB. The data set is described as follows: EMSA of NF-κB activation in BMC2.3 cells. In kind it is cell-based, murine. Conditions: 3 μg/ml, various times at 37° C. (FIG. 4). How it is done:
as §1, §2

In the case of “underivatized, aqueous soluble β(1-3)-glucan [PGG-Glucan]”, in the data set on NF-IL6, the “NF-IL6 protein-^32P DNA complex formation (EMSA, in words)” value is “time dependent increase in protein-DNA complexes”. Further, the “specific binding of human peripheral blood PMN relative to mononuclear cells” value in data set [1] was “five to ten”. The “competition for ^3H-underivatized, aqueous soluble β(1-3)-glucan binding to HLM (in words)” value in data set [2] (FIG. 14) is listed as “competes”. The “% Control Binding” value turned out to be 22% in data set [2] (addition at 0.1 mg/ml, ^3H-PGG-Glucan binding to human leukocyte membranes); 23.6% in data set [3] (ligand 0.01 mg hexose/mL); 3.0% in data set [3] (ligand 0.1 mg hexose/mL); 1.4% in data set [3] (ligand 1.0 mg hexose/mL). Also, the “NF-κB protein-^32P DNA complex formation (EMSA, in words)” value in the data set on NF-κB is “time dependent increase in protein-DNA complexes”.
